According to patent US20240180093A1, “GENETIC MARKERS AND SOYBEAN PLANTS WITH INCREASED TOLERANCE TO DICAMBA” (THE CURATORS OF THE UNIVERSITY OF MISSOURI, priority 2022, published 2024):
Like-named read-outs stand apart in the source and are kept apart here.

Assays:
[1] = cited from earlier work
soybean accessions = details: for Mean off-target dicamba damage score: 1 to 5 scale
Text: A total of 382 genetically diverse soybean accessions with maturity groups (MG) ranging from MG 3 to 5 were used in this study. These comprise a subset of the USDA Soybean Germplasm Collection and originated from […], including Algeria (2), China (226), Costa Rica (1), Georgia (2), Indonesia (1), Japan (38), Nepal (1), North Korea (20), Russia (5), South Africa (1), South Korea (32), Taiwan (3), United States (40), and Vietnam (5). Five accessions have unknown origins. The USDA Soybean Germplasm Collection was genotyped with the SoySNP50K BeadChip.
Field trials were conducted in three environments for two years (2020-2021) using a two-replicate randomized complete block design in Portageville, MO (36°23′44.2″N lat; 89°36′52.3″W long) and Clarkton, MO (36°29′14.8″N lat; 89°57′39.0″W long). Each plot consisted of a single 2.13 m long row spaced 0.76 m apart.
Each year, genotypes were visually assessed for off-target dicamba damage once in the early reproductive stage between R1 to R3 (approximately […]). Lines were rated on a 1 to 5 scale with 0.5 increments.
Adjusted means across environments were calculated using the function ‘ls_means’ of the R package ‘lmerTest’ (available at https://www.r-project.org/) based on a mixed-effects linear model conducted with the package ‘lme4’. The model included the fixed effect of genotype, the random interaction between genotype and environment (G×E), the random effect of environment, and the nested random effect of replication within the environment. To measure the consistency and inter-relatedness of the damage ratings across environments, Cronbach's alpha (α) score was calculated each year using the R package ‘psych’ (Revelle, 2021) based on Eq. 1.

For `O=C(O)CNCP(=O)(O)O` [glyphosate, N-(phosphonomethyl)glycine], which water solubility [1] is on record?
The water solubility was “high water solubility”.

What does the source list for `COc1c(Cl)ccc(Cl)c1C(=O)O` [dicamba, 3,6-dichloro-2-methoxybenzoic acid]?
Mean off-target dicamba damage score (soybean accessions; environment 2020-Clarkton): 2.70; Mean off-target dicamba damage score (soybean accessions; environment 2021-Clarkton): 2.80; Mean off-target dicamba damage score (soybean accessions; environment 2021-LeeFarm): 2.60; Mean off-target dicamba damage score (soybean accessions; overall, three environments 2020-2021, 382 accessions): 2.70; average damage (soybean accessions; accession PI 88788): 3.5; average damage (soybean accessions; accession PI 342434 (Japan)): 1.5; average damage (soybean accessions; accession PI 424005 (South Korea)): 1.2; average damage (soybean accessions; accession PI 424038-B (South Korea)): 1.3; average damage (soybean accessions; accession PI 547862 (L83-570, United States)): 4.1; average damage (soybean accessions; accession PI 552538 (Dunbar, United States)): 4.2; average damage (soybean accessions; accession PI 561701 (G88-20092, United States)): 1.4; average damage (soybean accessions; accession PI 597387 (Pana, United States)): 4.5; average damage (soybean accessions; accession PI 598124 (Maverick, United States)): 4.3; average damage (soybean accessions; accession PI 603497 (China)): 1.4; average damage (soybean accessions; accession PI 603675 (China)): 4.5; average damage (soybean accessions; accessions derived from Asia): 2.6; average damage (soybean accessions; accessions derived from the Americas): 3.0; average damage (soybean accessions; accessions from China): 2.7; average damage (soybean accessions; accessions from Costa Rica): 3.1; average damage (soybean accessions; accessions from Japan): 2.6; average damage (soybean accessions; accessions from South Korea): 2.5; average damage (soybean accessions; accessions from the United States): 2.3; average damage (soybean accessions; accessions of maturity group MG 3): 2.8; average damage (soybean accessions; accessions of maturity group MG 4): 2.7; average damage (soybean accessions; accessions of maturity group MG 5): 2.5; mean score of dicamba damage (soybean accessions; genotypes carrying all three favorable alleles (ss715605561, ss715635349, ss715632413)): 1.58; mean score of dicamba damage (soybean accessions; genotypes carrying all three unfavorable alleles (ss715605561, ss715635349, ss715632413)): 2.90
